This series relates to CCRIS mutagenicity, Ames/micronucleus/aberration tests. In words: CCRIS mutagenicity studies. The conditions noted are these: Test System: AMES SALMONELLA TYPHIMURIUM

Each structure is given as a SMILES string. Calls of active or inactive are those of the source. No rule for the calls is given here.

In the case of `O=[N+]([O-])c1ccc2c(c1)oc1ccc([N+](=O)[O-])cc12`, the mutagenic call by setting is: (Strain/Indicator: TA98(1,8-DNP6), Metabolic Activation: NONE, Method: PREINCUBATION) “active; positive”; (Strain/Indicator: TA98(1,8-DNP6), Metabolic Activation: NONE, Method: SUSPENSION) “active; positive”; (Strain/Indicator: TA98(1,8-DNP6), Metabolic Activation: RAT, LIVER, S-9, PCB (5%), Method: PREINCUBATION) “active; positive”; (Strain/Indicator: TA98(NR), Metabolic Activation: NONE, Method: PREINCUBATION) “inactive; negative”; (Strain/Indicator: TA98(NR), Metabolic Activation: NONE, Method: SUSPENSION) “inactive; negative”; (Strain/Indicator: TA98(NR), Metabolic Activation: RAT, LIVER, S-9 (10%), Method: PREINCUBATION) “active; positive”. In addition, the mutagenic call runs as follows: (Strain/Indicator: TA98(NR), Metabolic Activation: RAT, LIVER, S-9, 3-METHYLCHOLANTHRENE (10%), Method: PREINCUBATION) “active; positive”; (Strain/Indicator: TA98(NR), Metabolic Activation: RAT, LIVER, S-9, BETA-NAPHTHOFLAVONE (10%), Method: PREINCUBATION) “active; positive”; (Strain/Indicator: TA98(NR), Metabolic Activation: RAT, LIVER, S-9, PCB (5 OR 10%), Method: PREINCUBATION) “active; positive”; (Strain/Indicator: TA98(NR), Metabolic Activation: RAT, LIVER, S-9, PHENOBARBITAL (10%), Method: PREINCUBATION) “active; positive”; (Strain/Indicator: TA98, Metabolic Activation: NONE, Method: PREINCUBATION) “active; positive”; (Strain/Indicator: TA98, Metabolic Activation: NONE, Method: SUSPENSION) “active; positive”. For the same molecule, the mutagenic call by setting is: (Strain/Indicator: TA98, Metabolic Activation: RAT, LIVER, S-9, PCB (5%), Method: PREINCUBATION) “active; positive”; (Strain/Indicator: TA98, Metabolic Activation: RAT, LIVER, S-9, PCB, Method: SUSPENSION) “active; positive”; (Strain/Indicator: TA100, Metabolic Activation: NONE, Method: PREINCUBATION) “inactive; negative”; (Strain/Indicator: TA100, Metabolic Activation: NONE, Method: SUSPENSION) “inactive; negative”; (Strain/Indicator: TA100, Metabolic Activation: RAT, LIVER, S-9, PCB (5%), Method: PREINCUBATION) “inactive; negative”; (Strain/Indicator: TA100, Metabolic Activation: RAT, LIVER, S-9, PCB, Method: SUSPENSION) “active; positive”.

These data come from PubChem BioAssay AID1259407 (Chemical Carcinogenesis Research Information System (CCRIS), 2018).
